According to patent publication US9820992B2, “Method of treating non-small-cell lung cancer using pharmaceutical formulation containing thienotriazolodiazepine compounds” (ONCOETHIX GmbH, priority 2013, dated 2017):
Entries after “also recorded” stand apart in the source; their conditions may differ.

Experiments:
STAT3 = test: Cell signaling pathways assessment (Western blot); type: cell-based; conditions: down-regulation after 24 h and up to 72 h exposure
Description: (§1) Five established NSCLC cell lines (i.e. H2228, H3122, A549, HOP62 and HOP92) were exposed to increasing doses of compound (1-1) (OncoEthix SA, Switzerland). Effect on cell viability was determined by the MTT assay after 72 h exposure. The growth inhibition (GI) 50% values were determined by GraphPad Prism 5.0 software. And protein levels were analyzed by Western Blot using commercial antibodies. RNA was extracted with the Qiagen RNAEasy kit and reverse-transcribed using the Superscript First-Strand Synthesis System for RT-PCR kit following manufacturer's instructions. RT-PCR was performed using Fast SYBR Green Master Mix on a StepOnePlus Real-Time PCR System.

H3122 tumor = H3122 tumor growth in nude mice; type: in vivo, male athymic NMRI nude mice; conditions: gavage, continuous
Description: 5.10^6 H3122 cells were injected in the flank of male athymic NMRI nude mice, and mice were randomized to 3 groups (8 mice/group) when tumor volume reach 100 mm^3; vehicle (PBS, once daily, oral continuous), Compound (1-1) (50 mg/kg/bidaily, gavage, continuous), or crizotinib (25 mg/kg/daily, gavage, continuous).

C-MYC = C-MYC protein and mRNA levels in NSCLC cell lines (Western blot, RT-PCR); type: cell-based; conditions: NSCLC cell lines (Example 7)
Description: as §1

H3122 cells = test: MTT cell viability/proliferation assay, 72 h; type: cell-based; conditions: Homo sapiens, NCI-H3122, H3122 cells (EML4-ALK-positive), 72-h exposure
Description: as §1
(§2) Five established NSCLC cell lines, HOP62, HOP92, A549, H2228, and H3122 harboring different oncogenic mutations for KRAS, LKB1, TP53 and ALK (FIG. 19) were exposed to increasing doses of compound (1-1) (OncoEthix SA, Switzerland) for 72 h and cell proliferation was evaluated by MTT assays. Results represent the mean±95% CI of at least 3 independent experiments performed in triplicate. Protein levels were analyzed by Western blot using commercial antibodies. For cell cycle analysis cells were stained with PI and analyzed using a FACScan flow cytometer after 24 h of treatment. RT-PCR was performed using Fast SYBR Green Master Mix on a StepOnePlus Real-Time PCR System. Results represent the mean±SD of at least 2 independent experiments, where *p<0.05 versus control cells (0.1% DMSO), employing Anova followed by Dunnett's Multiple Comparison Test. Concomitant compound (1-1) combination studies were performed in cell lines exposed for 48 h to increasing doses of compound (1-1) alone or in combination with everolimus or crizotinib, and assessed using the Chou & Talalay method. Combination Index (CI) was determined by median effect plot analysis using CalcuSyn software. CI<1 synergy, CI=1 additivity and CI>1 antagonist effects. Results represent the median and range of 3 independent experiments performed in triplicate.

A549 cells [1] = test: MTT cell viability/proliferation assay, 72 h; type: cell-based
Description: as §1, §2

H2228 cells [2] = test: MTT cell viability/proliferation assay, 72 h; type: cell-based; conditions: Homo sapiens, NCI-H2228, H2228 cells (EML4-ALK-positive), 72-h exposure
Description: as §1, §2

[3] = test system: N-MYC mRNA in H3122 cells; test: N-MYC mRNA levels in H3122 cells (RT-PCR); type: cell-based
Description: as §1
Five established NSCLC cell lines, HOP62, HOP92, A549, H2228, and H3122 harboring different oncogenic mutations for KRAS, LKB1, TP53 and ALK (FIG. 19) were exposed to increasing doses of compound (1-1) (OncoEthix SA, Switzerland) for 72 h and cell proliferation was evaluated by MTT assays. […] Protein levels were analyzed by Western blot using commercial antibodies. For cell cycle analysis cells were stained with PI and analyzed using a FACScan flow cytometer after 24 h of treatment. […] Concomitant compound (1-1) combination studies were performed in cell lines exposed for 48 h to increasing doses of compound (1-1) alone or in combination with everolimus or crizotinib, and assessed using the Chou & Talalay method. […]

NSCLC cells = test: Cell cycle analysis (PI staining, flow cytometer); type: cell-based; conditions: 24 h exposure; dihydrate
Description: as §2

[4] = test system: NSCLC cell lines HOP62, HOP92, A549, H2228, H3122; test: MTT proliferation assay in NSCLC cell line panel; type: cell-based; conditions: five NSCLC cell lines
Description: as §2

[5] = test system: N-MYC mRNA in HOP62 cells; test: N-MYC mRNA levels in HOP62 cells (RT-PCR); type: cell-based; conditions: 500 nM, after 4 hours, maintained after 24 hours
Description: as §2

HOP62 cells = test: Concomitant combination with everolimus (Chou & Talalay); type: cell-based; conditions: 48 h concomitant
Description: as §2

A549 cells [6] = test: as above; type: cell-based; conditions: 48 h concomitant
Description: as §2

H2228 cells [7] = test: as above; type: cell-based; conditions: 48 h concomitant
Description: as §2

HOP92 cells = test: as above; type: cell-based; conditions: 48 h concomitant
Description: as §2

H2228 cells [8] = test: Concomitant combination with crizotinib (Chou & Talalay); type: cell-based; conditions: combined with crizotinib, 48 h concomitant exposure, CI<1 synergy, CI=1 additivity, CI>1 antagonist, called additive
Description: as §2

C-MYC in HOP92 cells = test: C-MYC mRNA and protein levels in HOP92 cells; type: cell-based; conditions: 500 nM, after 4 hours, maintained after 24 hours
Description: as §2

GI50 (H3122 cells) | GI50 (A549 cells [1]; Homo sapiens, A549, EML4-ALK-negative (A49) cell line, 72 h exposure, MTT) | GI50 (H2228 cells [2]) | GI50 ([4]; 72 h-exposure, read-out: GI50 values across the cell line panel) | Structure (SMILES) | STAT3 regulation (STAT3) | tumor growth in H3122 tumor bearing-mice (H3122 tumor; 50 mg/kg/bidaily, vs vehicle, dihydrate) | C-MYC protein and mRNA levels (C-MYC) | effects in A549 cells (A549 cells [1]; A549 cells with concurrent KRAS and LKB1 mutations) | N-MYC mRNA levels ([3]; EML4-ALK-positive H3122 cells (Example 7)) | N-MYC mRNA levels ([3]; H3122 cells, 500 nM, after 4 hours, maintained after 24 hours) | percentage of cells in S phase (NSCLC cells) | cytostatic effects in NSCLC cell lines ([4]; 72 h) | N-MYC mRNA levels [5] | combination effect with everolimus (HOP62 cells) | combination effect with everolimus (A549 cells [6]) | combination effect with everolimus (H2228 cells [7]) | combination effect with everolimus (HOP92 cells) | Combination Index (CI) (H2228 cells [8]) | C-MYC mRNA and protein levels (C-MYC in HOP92 cells) | tumor growth in H3122 tumor bearing-mice (H3122 tumor; 25 mg/kg/daily)
627 nM | 432 nM | 629 nM | 100 to 700 nM | Cc1sc2c(c1C)C(c1ccc(Cl)cc1)=N[C@@H](CC(=O)Nc1ccc(O)cc1)c1nnc(C)n1-2 [Compound (1-1), 2-[(6S)-4-(4-chlorophenyl)-2,3,9-trimethyl-6H-thienol[3,2-f]-[1,2,4]triazolo[4,3-a][1,4]diazepin-6-yl]-N-(4-hydroxyphenyl)acetamide dihydrate] | transient upregulation of STATS with a subsequent down-regulation | inhibited tumor growth to a similar extent as crizotinib; also recorded: slowed tumor progression | not altered | abrogate compound (1-1) effects | down-regulation | rapid downregulation | reduction in the percentage of cells in S phase; also recorded: reduction of the S phase cell fraction | cytostatic effects in 4 out of 5 NSCLC cell lines | rapid downregulation | additive/synergistic effects | additive/synergistic effects | additive/synergistic effects | additive/synergistic effects | 0.9 | rapid downregulation | 
 |  |  |  | C[C@@H](Oc1cc(-c2cnn(C3CCNCC3)c2)cnc1N)c1c(Cl)ccc(F)c1Cl [crizotinib, reference compound] |  |  |  |  |  |  |  |  |  |  |  |  |  |  |  | inhibited tumor growth to a similar extent
